# Measured values: the supplement of paper PMC10307832
# What was measured:
# Test in all cases: relative viability (nuclei count vs DMSO), 5 days (fraction); higher = more cells survive
# RAF265 + Luminespib = compound: Cn1c(Nc2ccc(C(F)(F)F)cc2)nc2cc(Oc3ccnc(-c4ncc(C(F)(F)F)[nH]4)c3)ccc21 [RAF265] + CCNC(=O)c1noc(-c2cc(C(C)C)c(O)cc2O)c1-c1ccc(CN2CCOCC2)cc1 [Luminespib] (partner 0.01 µM)
# How it was run: (§1)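 Relative viability divides the nuclei count in treated wells by that in vehicle wells. Lung cancer cell lines were seeded in 1536-well plates, dosed by pin tool the next day, and fixed and stained after 5 days in one step with final 0.05% Triton X-100, 1% formaldehyde and 1 ug/ml Hoechst. Dosing was a single drug or a fixed anchor-drug dose plus five library-drug doses (not always all listed) in √10 steps, and values are medians of duplicate plates imaged at 4×.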
# RAF265 + Lapatinib = compound: Cn1c(Nc2ccc(C(F)(F)F)cc2)nc2cc(Oc3ccnc(-c4ncc(C(F)(F)F)[nH]4)c3)ccc21 [RAF265] + CS(=O)(=O)CCNCc1ccc(-c2ccc3ncnc(Nc4ccc(OCc5cccc(F)c5)c(Cl)c4)c3c2)o1 [Lapatinib] (partner 2 µM)
# How it was run: as §1
# Doramapimod + Pictilisib = compound: Cc1ccc(-n2nc(C(C)(C)C)cc2NC(=O)Nc2ccc(OCCN3CCOCC3)c3ccccc23)cc1 [Doramapimod] + CS(=O)(=O)N1CCN(Cc2cc3nc(-c4cccc5[nH]ncc45)nc(N4CCOCC4)c3s2)CC1 [Pictilisib] (partner 1 µM)
# How it was run: as §1
# IPA-3 + Dasatinib = compound: C1=CC=C2C(=C1)C=CC(=C2SSC3=C(C=CC4=CC=CC=C43)O)O [IPA-3] + Cc1nc(Nc2ncc(C(=O)Nc3c(C)cccc3Cl)s2)cc(N2CCN(CCO)CC2)n1 [Dasatinib] (partner 0.075 µM)
# How it was run: as §1
Cell Line,relative viability (RAF265 + Luminespib; first compound 0.01 µM),relative viability (RAF265 + Luminespib; first compound 0.03162 µM),relative viability (RAF265 + Luminespib; first compound 0.1 µM),relative viability (RAF265 + Luminespib; first compound 0.3162 µM),relative viability (RAF265 + Luminespib; first compound 1 µM),relative viability (RAF265 + Lapatinib; first compound 0.01 µM),relative viability (RAF265 + Lapatinib; first compound 0.03162 µM),relative viability (RAF265 + Lapatinib; first compound 0.1 µM),relative viability (RAF265 + Lapatinib; first compound 0.3162 µM),relative viability (RAF265 + Lapatinib; first compound 1 µM),relative viability (Doramapimod + Pictilisib; first compound 0.02 µM),relative viability (Doramapimod + Pictilisib; first compound 0.06325 µM),relative viability (Doramapimod + Pictilisib; first compound 0.2 µM),relative viability (Doramapimod + Pictilisib; first compound 0.6325 µM),relative viability (Doramapimod + Pictilisib; first compound 2 µM),relative viability (IPA-3 + Dasatinib; first compound 0.2 µM),relative viability (IPA-3 + Dasatinib; first compound 0.6325 µM),relative viability (IPA-3 + Dasatinib; first compound 2 µM),relative viability (IPA-3 + Dasatinib; first compound 6.325 µM),relative viability (IPA-3 + Dasatinib; first compound 20 µM)
NCI-H1395,0.633,0.726,0.7,0.658,0.509,1.41,0.943,0.957,0.942,0.912,0.567,0.599,0.601,0.624,0.545,0.408,0.42,0.385,0.44,0.466
NCI-H2228,0.191,0.118,0.186,0.126,0.0971,1.25,0.859,1.24,0.416,0.43,0.374,0.563,0.417,0.366,0.337,0.571,0.51,0.529,0.62,0.557
LU99A,0.262,0.194,0.229,0.182,0.202,1.02,0.838,0.61,0.496,0.324,0.348,0.303,0.311,0.307,0.263,0.584,0.61,0.642,0.725,0.669
NCI-H1437,1.02,1.07,1.08,1.23,1.11,0.897,0.776,0.77,0.784,0.78,0.453,0.411,0.37,0.596,0.415,0.542,0.411,0.286,0.501,0.718
EKVX,0.837,0.918,0.984,0.598,0.791,0.189,0.199,0.228,0.153,0.187,0.391,0.375,0.364,0.513,0.352,0.538,0.544,0.599,0.537,0.486
ABC-1,0.656,0.823,0.75,0.519,0.265,1.08,1.01,1.2,1.25,0.886,0.847,0.614,0.646,0.757,0.737,0.666,0.477,0.536,0.708,0.58
NCI-H520,0.211,0.232,0.235,0.208,0.215,0.894,0.873,0.776,0.694,0.498,0.238,0.278,0.252,0.288,0.22,0.311,0.194,0.185,0.18,0.179
